Earlier results as cited in patent US20250134147A1, “METHODS AND COMPOSITIONS FOR IMPROVED SUGAR-LIKE TASTE” (ALMENDRA (THAILAND) LTD., priority 2021, published 2025).
Read-outs that look alike come from different tables or passages of the source.

Experiments:
[1] = for sweetness potency, times more potent than sucrose: sensory evaluations, Crammer and Ikan 1986; for sweetness potency, times higher than sucrose: relative to sucrose, Tanaka 1987 / Phillips 1989
[2] = Kinghorn 2002
[3] = comparison among steviol glycosides

SMILES	taste quality / sensory attributes [3]	sweetness potency, times higher than sucrose [1]	other results
C=C1C[C@@]23CC[C@H]4[C@@](C)(CCC[C@@]4(C)C(=O)O)[C@@H]2CC[C@]1(O[C@@H]1O[C@H](CO)[C@@H](O)[C@H](O[C@@H]2O[C@H](CO)[C@@H](O)[C@H](O)[C@H]2O)[C@H]1O[C@@H]1O[C@H](CO)[C@@H](O)[C@H](O)[C@H]1O)C3 [Rebaudioside B, (4R,4αS,6αR,9S,11αR,11βS)-9-(((2S,3R,5R,6R)-5-hydroxy-6-(hydroxymethyl)-4-(((2S,3R,4S,5S,6R)-3,4,5-trihydroxy-6-(hydroxymethyl)tetrahydro-2H-pyran-2-yl)oxy)-3-(((3R,4S,5S,6R)-3,4,5-trihydroxy-6-(hydroxymethyl)tetrahydro-2H-pyran-2-yl)oxy)tetrahydro-2H-pyran-2-yl)oxy)-4,11β-dimethyl-8-methylenetetradecahydro-6α,9-methanocyclohepta[a]naphthalene-4-carboxylic acid]	–	–	sweetness potency, times more potent than sucrose [1]: 300-350 times; water solubility [2]: about 0.1%
C=C1C[C@@]23CC[C@H]4[C@@](C)(CCC[C@@]4(C)C(=O)O[C@@H]4O[C@H](CO)[C@@H](O)[C@H](O)[C@H]4O)[C@@H]2CC[C@]1(O[C@@H]1O[C@H](CO)[C@@H](O)[C@H](O)[C@H]1O)C3 [rubusoside]	significantly inferior to that of stevioside	–	–
C=C1C[C@@]23CC[C@H]4[C@@](C)(CCC[C@@]4(C)C(=O)O[C@@H]4O[C@H](CO)[C@@H](O)[C@H](O)[C@H]4O[C@@H]4O[C@H](CO)[C@@H](O)[C@H](O)[C@H]4O)[C@@H]2CC[C@]1(O[C@@H]1O[C@H](CO)[C@@H](O)[C@H](O[C@@H]2O[C@H](CO)[C@@H](O)[C@H](O)[C@H]2O)[C@H]1O[C@@H]1O[C@H](CO)[C@@H](O)[C@H](O)[C@H]1O)C3 [Rebaudioside D]	very desirable taste profile	–	–
C=C1C[C@@]23CC[C@H]4[C@@](C)(CCC[C@@]4(C)C(=O)O[C@@H]4O[C@H](CO)[C@@H](O)[C@H](O)[C@H]4O)[C@@H]2CC[C@]1(O[C@@H]1O[C@H](CO)[C@@H](O)[C@H](O)[C@H]1O[C@@H]1O[C@H](CO)[C@@H](O)[C@H](O)[C@H]1O)C3 [Stevioside]	–	110-270 times	–
C=C1C[C@@]23CC[C@H]4[C@@](C)(CCC[C@@]4(C)C(=O)O)[C@@H]2CC[C@]1(O[C@@H]1O[C@H](CO)[C@@H](O)[C@H](O)[C@H]1O[C@@H]1O[C@H](CO)[C@@H](O)[C@H](O)[C@H]1O)C3 [Steviolbioside]	significantly inferior to that of stevioside	–	–
C=C1C[C@@]23CC[C@H]4[C@@](C)(CCC[C@@]4(C)C(=O)O[C@@H]4O[C@H](CO)[C@@H](O)[C@H](O)[C@H]4O)[C@@H]2CC[C@]1(O[C@@H]1O[C@H](CO)[C@@H](O)[C@H](O[C@@H]2O[C@H](CO)[C@@H](O)[C@H](O)[C@H]2O)[C@H]1O[C@@H]1O[C@H](CO)[C@@H](O)[C@H](O)[C@H]1O)C3 [Rebaudioside A, (3R,4S,5S,6R)-3,4,5-trihydroxy-6-(hydroxymethyl)tetrahydro-2H-pyran-2-yl(4R,4αS,11αR,11βS)-10-(((2R,3R,5R,6R)-5-hydroxy-6-(hydroxymethyl)-3,4-bis(((2S,3R,4S,5S,6R)-3,4,5-trihydroxy-6-(hydroxymethyl)tetrahydro-2H-pyran-2-yl)oxy)tetrahydro-2H-pyran-2-yl)oxy)-4,11β-dimethyl-8-methylenetetradecahydro-6α,9-methanocyclohepta[a]naphthalene-4-carboxylate]	the least astringent, the least bitter, and the least persistent aftertaste	–	taste quality / sensory attributes ([3]; listed as rebaudioside A): clearly surpasses stevioside and rebaudioside B; sweetness potency, times more potent than sucrose [1]: 350-450 times
C=C1C[C@@]23CC[C@H]4[C@@](C)(CCC[C@@]4(C)C(=O)O[C@@H]4O[C@H](CO)[C@@H](O)[C@H](O)[C@H]4O)[C@@H]2CC[C@]1(O[C@@H]1O[C@H](CO)[C@@H](O)[C@H](O)[C@H]1O[C@@H]1O[C@@H](C)[C@H](O)[C@@H](O)[C@H]1O)C3 [Dulcoside A]	–	30 times	–
C=C1C[C@@]23CCC4[C@@](C)(CCC[C@@]4(C)C(=O)OC4O[C@H](CO)[C@@H](O)[C@H](O)[C@H]4O)C2CC[C@]1(O[C@@H]1O[C@H](CO)[C@@H](O)[C@H](O[C@@H]2O[C@H](CO)[C@@H](O)[C@H](O)[C@H]2O)[C@H]1O[C@H]1O[C@H](C)[C@@H](O)[C@H](O)[C@@H]1O)C3 (some centres unmarked) [Rebaudioside C]	–	40-60 times	–
